# Data as given in paper PMC6688997 (Nature Communications, 2019).
# Read-outs that look alike come from different tables or passages of the source.
# How the values were obtained:
# TSSK3 = target: T1, TSSK3 (Homo sapiens, UniProt Q96PN8); test: Kinase assay, ATP Km; type: biochemical
# T1 construct: purchased Carna Biosciences
# [1] = tested on: Ba/F3 TPM3-NTRK1 G595R cells; test: CellTiter-Glo cell viability assay; type: cell-based, murine
# DAPK1 = DAPK1 (Homo sapiens, UniProt P53355); test: Kinase assay, ATP Km; type: biochemical
# FRK = target: T2, FRK (Homo sapiens, UniProt P42685); test: Kinase assay, ATP Km; type: biochemical
# T2 construct: purchased Carna Biosciences
# PKCη = target: T3, PKCη (Homo sapiens, UniProt P24723); test: Kinase assay, ATP Km; type: biochemical
# T3 construct: purchased Carna Biosciences
# IRAK1 = IRAK1 (Homo sapiens, UniProt P51617); test: Kinase assay, ATP Km; type: biochemical
# DYRK2 = DYRK2 (Homo sapiens, UniProt Q92630); test: Kinase assay, ATP Km; type: biochemical
# TBK1 = target: T4, TBK1 (Homo sapiens, UniProt Q9UHD2); test: Kinase assay, ATP Km; type: biochemical
# T4 construct: purchased Carna Biosciences
# NIM1K = target: T5, NIM1K (Homo sapiens, UniProt Q8IY84); test: Kinase assay, ATP Km; type: biochemical
# T5 construct: purchased Carna Biosciences
# NEK1 = target: T6, NEK1 (Homo sapiens, UniProt Q96PY6); test: Kinase assay, ATP Km; type: biochemical
# T6 construct: purchased Carna Biosciences
# T6 sequence (Q96PY6 whole entry): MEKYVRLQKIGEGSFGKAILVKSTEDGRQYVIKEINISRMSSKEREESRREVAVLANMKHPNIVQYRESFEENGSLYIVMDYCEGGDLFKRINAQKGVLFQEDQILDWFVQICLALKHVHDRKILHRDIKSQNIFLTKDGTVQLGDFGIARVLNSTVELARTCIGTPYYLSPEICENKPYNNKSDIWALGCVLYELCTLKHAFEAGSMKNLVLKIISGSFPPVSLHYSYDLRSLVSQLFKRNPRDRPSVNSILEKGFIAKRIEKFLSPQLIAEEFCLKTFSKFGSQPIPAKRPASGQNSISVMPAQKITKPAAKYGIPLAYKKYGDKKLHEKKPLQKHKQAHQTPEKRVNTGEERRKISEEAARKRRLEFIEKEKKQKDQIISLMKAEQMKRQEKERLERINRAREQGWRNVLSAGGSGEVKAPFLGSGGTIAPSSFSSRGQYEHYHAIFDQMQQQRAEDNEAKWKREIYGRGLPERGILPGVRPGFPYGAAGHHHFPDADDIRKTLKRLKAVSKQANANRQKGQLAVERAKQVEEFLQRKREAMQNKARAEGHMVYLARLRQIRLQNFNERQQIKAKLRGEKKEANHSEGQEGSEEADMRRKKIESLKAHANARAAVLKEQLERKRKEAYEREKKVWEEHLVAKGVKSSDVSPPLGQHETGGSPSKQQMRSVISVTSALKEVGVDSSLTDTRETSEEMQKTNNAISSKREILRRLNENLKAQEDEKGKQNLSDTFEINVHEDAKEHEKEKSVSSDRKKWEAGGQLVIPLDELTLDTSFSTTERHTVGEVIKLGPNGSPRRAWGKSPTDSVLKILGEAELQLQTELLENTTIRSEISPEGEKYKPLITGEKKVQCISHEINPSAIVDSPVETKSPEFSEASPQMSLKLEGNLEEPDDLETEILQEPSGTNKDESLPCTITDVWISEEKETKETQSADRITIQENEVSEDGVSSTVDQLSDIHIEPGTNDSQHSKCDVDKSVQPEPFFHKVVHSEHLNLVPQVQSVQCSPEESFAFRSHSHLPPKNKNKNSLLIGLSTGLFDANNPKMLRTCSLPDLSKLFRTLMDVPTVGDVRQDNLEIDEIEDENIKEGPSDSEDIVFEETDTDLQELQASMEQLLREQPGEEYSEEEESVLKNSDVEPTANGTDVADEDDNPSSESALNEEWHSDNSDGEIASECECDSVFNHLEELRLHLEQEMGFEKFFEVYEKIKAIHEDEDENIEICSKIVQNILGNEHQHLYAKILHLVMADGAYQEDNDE
# PIM3 = PIM3 (Homo sapiens, UniProt Q86V86); test: Kinase assay, ATP Km; type: biochemical
# IKKβ = target: T7, IKKβ (Homo sapiens, UniProt O14920); test: Kinase assay, ATP Km; type: biochemical
# T7 construct: purchased Carna Biosciences
# TRKC (NTRK3) = target: T8, TRKC (NTRK3) (Homo sapiens, UniProt Q16288); test: Kinase assay, ATP Km; type: biochemical; details: for IC50: ATP: Km
# T8 construct: purchased Carna Biosciences, Inc. (Kobe, Japan); assay run by the vendor
# T8 sequence (Q16288 32-839): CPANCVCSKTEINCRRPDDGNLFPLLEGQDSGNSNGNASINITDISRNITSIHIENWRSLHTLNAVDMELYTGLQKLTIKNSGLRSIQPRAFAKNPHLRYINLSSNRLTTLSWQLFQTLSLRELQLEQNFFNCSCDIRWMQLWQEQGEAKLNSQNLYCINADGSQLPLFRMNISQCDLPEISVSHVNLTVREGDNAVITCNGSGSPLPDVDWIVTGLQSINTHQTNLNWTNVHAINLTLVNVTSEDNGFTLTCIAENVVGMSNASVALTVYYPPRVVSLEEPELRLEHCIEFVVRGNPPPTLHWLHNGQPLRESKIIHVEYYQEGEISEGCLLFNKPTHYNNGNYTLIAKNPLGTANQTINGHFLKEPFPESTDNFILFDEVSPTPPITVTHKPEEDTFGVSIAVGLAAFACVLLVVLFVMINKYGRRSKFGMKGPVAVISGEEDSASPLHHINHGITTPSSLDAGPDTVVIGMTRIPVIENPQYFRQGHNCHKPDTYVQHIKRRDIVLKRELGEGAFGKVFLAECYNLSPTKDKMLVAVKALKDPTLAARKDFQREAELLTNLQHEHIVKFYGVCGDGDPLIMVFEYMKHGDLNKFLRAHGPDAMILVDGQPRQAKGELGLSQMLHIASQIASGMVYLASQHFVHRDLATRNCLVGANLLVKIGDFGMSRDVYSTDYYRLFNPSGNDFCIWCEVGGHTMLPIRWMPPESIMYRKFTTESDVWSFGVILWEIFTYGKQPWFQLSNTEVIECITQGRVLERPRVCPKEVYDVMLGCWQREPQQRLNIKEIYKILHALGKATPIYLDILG
# [2] = tested on: KM12 xenograft (TPM3-NTRK1); type: in vivo, mouse; details: for Tumor volume (average / SE): KM12 xenograft
# HIPK1 = target: T9, HIPK1 (Homo sapiens, UniProt Q86Z02); test: Kinase assay, ATP Km; type: biochemical
# T9 construct: purchased Carna Biosciences
# T9 sequence (Q86Z02 whole entry): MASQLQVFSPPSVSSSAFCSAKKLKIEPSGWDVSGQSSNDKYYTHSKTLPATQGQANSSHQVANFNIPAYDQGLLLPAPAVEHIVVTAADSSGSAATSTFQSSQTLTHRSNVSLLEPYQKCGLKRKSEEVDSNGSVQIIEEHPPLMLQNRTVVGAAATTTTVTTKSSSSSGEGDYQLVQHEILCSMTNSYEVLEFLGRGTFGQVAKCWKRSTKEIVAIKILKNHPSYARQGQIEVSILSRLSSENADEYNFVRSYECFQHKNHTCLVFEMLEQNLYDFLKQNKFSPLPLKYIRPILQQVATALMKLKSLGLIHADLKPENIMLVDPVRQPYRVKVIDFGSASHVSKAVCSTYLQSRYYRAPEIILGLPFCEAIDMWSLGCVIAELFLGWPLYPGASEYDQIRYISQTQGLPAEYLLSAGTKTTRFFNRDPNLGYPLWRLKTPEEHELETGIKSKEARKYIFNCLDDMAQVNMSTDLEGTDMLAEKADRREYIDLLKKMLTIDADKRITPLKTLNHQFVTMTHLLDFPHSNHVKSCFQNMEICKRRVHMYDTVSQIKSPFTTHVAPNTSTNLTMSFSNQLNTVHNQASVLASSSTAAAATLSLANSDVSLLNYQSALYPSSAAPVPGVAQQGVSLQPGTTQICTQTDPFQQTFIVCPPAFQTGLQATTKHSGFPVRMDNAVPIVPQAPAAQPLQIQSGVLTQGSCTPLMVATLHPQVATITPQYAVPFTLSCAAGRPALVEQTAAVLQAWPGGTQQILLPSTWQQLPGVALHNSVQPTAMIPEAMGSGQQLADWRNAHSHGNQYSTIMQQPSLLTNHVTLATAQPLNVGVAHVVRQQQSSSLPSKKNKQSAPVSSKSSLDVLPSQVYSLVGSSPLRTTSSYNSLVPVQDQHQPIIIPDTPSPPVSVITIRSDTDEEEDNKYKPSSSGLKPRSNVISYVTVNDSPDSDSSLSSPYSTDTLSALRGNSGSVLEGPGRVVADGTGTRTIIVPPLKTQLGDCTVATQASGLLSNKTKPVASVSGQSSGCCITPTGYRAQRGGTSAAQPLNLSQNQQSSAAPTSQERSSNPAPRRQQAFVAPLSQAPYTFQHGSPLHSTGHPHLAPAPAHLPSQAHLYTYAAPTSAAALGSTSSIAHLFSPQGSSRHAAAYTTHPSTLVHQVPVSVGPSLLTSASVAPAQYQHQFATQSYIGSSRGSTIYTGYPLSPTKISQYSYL
# RET = target: T10, RET (Homo sapiens, UniProt P07949); test: Kinase assay, ATP Km; type: biochemical
# T10 construct: purchased Carna Biosciences
# T10 sequence (P07949 29-1114): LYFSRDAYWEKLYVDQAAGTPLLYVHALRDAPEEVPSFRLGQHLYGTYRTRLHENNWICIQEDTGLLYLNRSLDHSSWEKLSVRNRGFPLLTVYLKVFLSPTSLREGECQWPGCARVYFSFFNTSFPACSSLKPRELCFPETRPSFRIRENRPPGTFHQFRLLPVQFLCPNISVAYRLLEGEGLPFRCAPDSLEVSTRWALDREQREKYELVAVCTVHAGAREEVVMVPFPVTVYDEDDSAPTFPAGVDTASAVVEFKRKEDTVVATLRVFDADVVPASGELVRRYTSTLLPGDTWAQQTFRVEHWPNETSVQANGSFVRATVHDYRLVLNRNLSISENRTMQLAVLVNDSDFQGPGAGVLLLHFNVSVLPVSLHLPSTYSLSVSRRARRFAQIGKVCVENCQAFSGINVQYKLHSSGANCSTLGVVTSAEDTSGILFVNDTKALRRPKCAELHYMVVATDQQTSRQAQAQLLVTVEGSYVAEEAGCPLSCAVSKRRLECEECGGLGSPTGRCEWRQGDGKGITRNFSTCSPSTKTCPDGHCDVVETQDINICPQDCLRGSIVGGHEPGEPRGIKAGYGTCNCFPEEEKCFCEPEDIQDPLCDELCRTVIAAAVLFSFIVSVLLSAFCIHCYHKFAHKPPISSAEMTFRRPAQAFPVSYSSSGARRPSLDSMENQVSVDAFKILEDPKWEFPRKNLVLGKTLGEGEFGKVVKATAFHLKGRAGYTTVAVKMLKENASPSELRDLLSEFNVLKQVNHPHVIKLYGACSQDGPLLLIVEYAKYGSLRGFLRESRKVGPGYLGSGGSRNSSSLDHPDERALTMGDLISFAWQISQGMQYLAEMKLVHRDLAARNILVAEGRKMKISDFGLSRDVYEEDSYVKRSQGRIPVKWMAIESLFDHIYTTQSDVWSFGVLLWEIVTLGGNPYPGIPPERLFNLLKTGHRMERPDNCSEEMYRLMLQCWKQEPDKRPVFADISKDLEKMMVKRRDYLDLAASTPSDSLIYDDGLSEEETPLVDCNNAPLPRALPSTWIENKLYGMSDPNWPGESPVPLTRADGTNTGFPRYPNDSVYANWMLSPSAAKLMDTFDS
# [3] = tested on: SLC34A2-ROS1-WT overexpressing HCC78xe3 cells; test: Cell viability in 3D culture, CellTiter-Glo; type: cell-based; details: 72 h
# BRK = target: T11, BRK (Homo sapiens, UniProt Q13882); test: Kinase assay, ATP Km; type: biochemical
# T11 construct: purchased Carna Biosciences
# MNK1 = target: T12, MNK1 (Homo sapiens, UniProt Q9BUB5); test: Kinase assay, ATP Km; type: biochemical
# T12 construct: purchased Carna Biosciences
# PIM2 = PIM2 (Homo sapiens, UniProt Q9P1W9); test: Kinase assay, ATP Km; type: biochemical
# Haspin = target: T13, Haspin (Homo sapiens, UniProt Q8TF76); test: Kinase assay, ATP Km; type: biochemical
# T13 construct: purchased Carna Biosciences
# HGK = target: T14, HGK (Homo sapiens, UniProt O95819); test: Kinase assay, ATP Km; type: biochemical
# T14 construct: purchased Carna Biosciences
# BLK = BLK (Homo sapiens, UniProt P51451); test: Kinase assay, ATP Km; type: biochemical
# ROS1 = target: T15, ROS1 (Homo sapiens, UniProt P08922); test: Kinase assay, 1 mM ATP; type: biochemical
# T15 construct: purchased Carna Biosciences, Inc. (Kobe, Japan)
# CK2α1/β = CK2α1/β (Homo sapiens, UniProt P68400); test: Kinase assay, ATP Km; type: biochemical
# Chain of CK2α1/β (P68400 whole entry): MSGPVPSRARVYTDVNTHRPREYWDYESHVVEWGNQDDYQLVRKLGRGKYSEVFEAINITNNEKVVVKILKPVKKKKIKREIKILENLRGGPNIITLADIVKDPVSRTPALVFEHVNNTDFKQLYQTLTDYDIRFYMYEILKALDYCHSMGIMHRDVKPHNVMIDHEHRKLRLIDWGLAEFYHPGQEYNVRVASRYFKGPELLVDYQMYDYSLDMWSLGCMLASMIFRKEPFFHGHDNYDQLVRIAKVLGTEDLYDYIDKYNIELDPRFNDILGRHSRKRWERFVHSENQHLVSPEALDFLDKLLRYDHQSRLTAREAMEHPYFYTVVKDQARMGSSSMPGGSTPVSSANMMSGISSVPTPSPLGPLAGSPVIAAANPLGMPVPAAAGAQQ
# Chain of CK2α1/β (P67870 whole entry partner): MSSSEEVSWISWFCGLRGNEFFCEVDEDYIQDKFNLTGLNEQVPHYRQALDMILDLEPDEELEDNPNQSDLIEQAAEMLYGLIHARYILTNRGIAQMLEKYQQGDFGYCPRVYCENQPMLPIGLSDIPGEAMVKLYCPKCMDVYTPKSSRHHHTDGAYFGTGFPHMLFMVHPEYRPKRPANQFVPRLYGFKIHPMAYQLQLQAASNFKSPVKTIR
# FGFR3 = target: T16, FGFR3 (Homo sapiens, UniProt P22607); test: Kinase assay, ATP Km; type: biochemical
# T16 construct: purchased Carna Biosciences
# CSK = CSK (Homo sapiens, UniProt P41240); test: Kinase assay, ATP Km; type: biochemical
# [4] = tested on: phospho-ROS1 in U-118 MG cells (FIG-ROS1); test: Immunoblot of ROS1 autophosphorylation; type: cell-based; details: 2 h
# ROCK1 = ROCK1 (Homo sapiens, UniProt Q13464); test: Kinase assay, ATP Km; type: biochemical
# LCK = LCK (Homo sapiens, UniProt P06239); test: Kinase assay, ATP Km; type: biochemical
# FYN(isoform b) = FYN(isoform b) (Homo sapiens, UniProt P06241); test: Kinase assay, ATP Km; type: biochemical
# ROCK2 = ROCK2 (Homo sapiens, UniProt O75116); test: Kinase assay, ATP Km; type: biochemical
# [5] = tested on: phospho-NTRK1 in KM12 cells; test: Immunoblot of NTRK1 phosphorylation; type: cell-based
# PDHK2 = PDHK2 (Homo sapiens, UniProt Q15119); test: Kinase assay, ATP Km; type: biochemical
# CHK2 = target: T17, CHK2 (Homo sapiens, UniProt O96017); test: Kinase assay, ATP Km; type: biochemical
# T17 construct: purchased Carna Biosciences
structure (smiles),measurement,setting,value
C[C@@H](N)COc1ccc(-c2cnc3ccc(N[C@H](C)c4cccc(F)c4)nn23)cc1.O=C(O)CCCCC(=O)O [DS-6051b],inhibition at 0.04 µM,TSSK3,3.2%
same,IC50,[1]; 72 h,< 100 nM
same,IC50,"[1]; Mus musculus, BaF3, 72 h",85.6 nM
same,inhibition at 0.04 µM,DAPK1,6.2%
same,inhibition at 0.04 µM,FRK,63.4%
same,inhibition at 0.04 µM,PKCη,22.2%
same,inhibition at 0.04 µM,IRAK1,19.3%
same,inhibition at 0.04 µM,DYRK2,5.3%
same,inhibition at 0.04 µM,TBK1,-2.4%
same,inhibition at 0.04 µM,NIM1K,-2.8%
same,inhibition at 0.04 µM,NEK1,7.2%
same,inhibition at 0.04 µM,PIM3,-0.434%
same,inhibition at 0.04 µM,IKKβ,-0.0613%
same,inhibition at 0.04 µM,TRKC (NTRK3),103%
same,IC50,TRKC (NTRK3),sub-nanomolar
same,IC50,TRKC (NTRK3); read-out: IC50,0.98 nM
same,Tumor volume (average / SE),"[2]; 6.25 mg/kg, day 0",172 mm3
same,Tumor volume (average / SE),"[2]; 6.25 mg/kg, day 2",226 mm3
same,Tumor volume (average / SE),"[2]; 6.25 mg/kg, day 4",383 mm3
same,Tumor volume (average / SE),"[2]; 6.25 mg/kg, day 6",637 mm3
same,Tumor volume (average / SE),"[2]; 6.25 mg/kg, day 8",1018 mm3
same,Tumor volume (average / SE),"[2]; 25 mg/kg po, day 0",171 mm3
same,Tumor volume (average / SE),"[2]; 25 mg/kg po, day 2",224 mm3
same,Tumor volume (average / SE),"[2]; 25 mg/kg po, day 4",329 mm3
same,Tumor volume (average / SE),"[2]; 25 mg/kg po, day 6",420 mm3
same,Tumor volume (average / SE),"[2]; 25 mg/kg po, day 8",661 mm3
same,Tumor volume (average / SE),"[2]; 50 mg/kg po, day 0",171 mm3
same,Tumor volume (average / SE),"[2]; 50 mg/kg po, day 2",211 mm3
same,Tumor volume (average / SE),"[2]; 50 mg/kg po, day 4",296 mm3
same,Tumor volume (average / SE),"[2]; 50 mg/kg po, day 6",268 mm3
same,Tumor volume (average / SE),"[2]; 50 mg/kg po, day 8",219 mm3
same,Tumor volume (average / SE),"[2]; 100 mg/kg po, day 0",171 mm3
same,Tumor volume (average / SE),"[2]; 100 mg/kg po, day 2",223 mm3
same,Tumor volume (average / SE),"[2]; 100 mg/kg po, day 4",239 mm3
same,Tumor volume (average / SE),"[2]; 100 mg/kg po, day 6",213 mm3
same,Tumor volume (average / SE),"[2]; 100 mg/kg po, day 8",161 mm3
same,Tumor volume (average / SE),"[2]; 200 mg/kg po, day 0",174 mm3
same,Tumor volume (average / SE),"[2]; 200 mg/kg po, day 2",220 mm3
same,Tumor volume (average / SE),"[2]; 200 mg/kg po, day 4",223 mm3
same,Tumor volume (average / SE),"[2]; 200 mg/kg po, day 6",207 mm3
same,Tumor volume (average / SE),"[2]; 200 mg/kg po, day 8",144 mm3
same,Dose inducing tumor shrinkage,"[2]; once daily oral gavage, 8 days",≥ 50 mg/kg
same,inhibition at 0.04 µM,HIPK1,0.135%
same,inhibition at 0.04 µM,RET,41.2%
same,Cell growth inhibition,[3],inhibited cell growth
same,inhibition at 0.04 µM,BRK,31.7%
same,inhibition at 0.04 µM,MNK1,3.7%
same,inhibition at 0.04 µM,PIM2,-2.4%
same,inhibition at 0.04 µM,Haspin,4.3%
same,inhibition at 0.04 µM,HGK,5.7%
same,inhibition at 0.04 µM,BLK,29.8%
same,inhibition at 0.2 µM,ROS1,101%
same,inhibition at 0.04 µM,CK2α1/β,4.1%
same,inhibition at 0.04 µM,FGFR3,26.4%
same,inhibition at 0.04 µM,CSK,-0.441%
same,Inhibition of autophosphorylation of ROS1,[4],dose dependently inhibited
same,inhibition at 0.04 µM,ROCK1,53%
same,inhibition at 0.04 µM,LCK,66.5%
same,inhibition at 0.04 µM,FYN(isoform b),49.2%
same,inhibition at 0.04 µM,ROCK2,45.6%
same,phospho-NTRK1 suppression,[5]; 10 nM,partially suppressed
same,phospho-NTRK1 suppression,[5]; 100 nM,disappeared completely
same,inhibition at 0.04 µM,PDHK2,4.4%
same,inhibition at 0.04 µM,CHK2,-3.2%
